In US20230257758A1, “PLANT METABOLITE-MEDIATED INDUCTION OF BIOFILM FORMATION IN SOIL BACTERIA TO INCREASE BIOLOGICAL NITROGEN FIXATION AND PLANT NITROGEN ASSIMILATION” (The Regents of the University of California, priority 2020, published 2023):

Key:
[1] = system: Gluconacetobacter diazotrophicus; assay: Microtiter-plate biofilm formation assay (crystal violet staining) with rice root exudates; assay type: cell-based; details: for Biofilm production (natural flavonoids, FIG. 7): exposed for 3 days to Oryza sativa root exudates supplemented with […] of the indicated compounds; for Biofilm formation, comparison of flavones (FIG. 11): 3 days with Oryza sativa root exudates supplemented with indicated concentrations; for Biofilm formation in chemical screening (normalized to DMSO control): wild-type rice (Kitaake) root exudate 198 μL + 2 μL of 10 mM compound, 3 days, crystal violet staining
Procedure: FIG. 3. […] Biofilm formation of Glucanoacetobacter diazotrophicus was assessed incubated with wild-type rice (Oryza sativa Kitaake) root exudates supplemented with 2 μl of each of 500 flavonoid and derivated compounds of a chemical library (FL-500, TimTec) and 700 compounds (natural and synthetic) (NPDepo library). Chemical screening was performed in a 96-well plate with each well containing: 198 μL of the Kitaake exudate and 2 μL of the 10 mM compound from the chemical libraries. An equal volume (2 μL) of DMSO was added to each well and served as the negative control. Gluconacetobacter diazotrophicus was added to the final OD600=0.01 to each well and incubated in a shaker at 150 rpm, 28° C. for 3 days before biofilm quantification by crystal violet staining. The value of each well in biofilm quantification was normalized to that of the DMSO control in each plate (DMSO=1). The heatmap was generated by the mean value of 3 biological replicates for each compound.
FIG. 7. Effect of natural flavonoids on biofilm formation in Glucanoacetobacter diazotrophicus. Induction of biofilm production in Gluconacetobacter diazotrophicus exposed to Oryza sativa root exudates supplemented with […] of the indicated compounds. Controls are exudates without compound and exudates with DMSO.
FIG. 11. Effects of Naringenin, Apigenin, Apigenin-7-Glucoside, and Luteolin on biofilm formation on Gluconacetobacter diazotrophicus. Values are the Mean±SD (n=6).
Any of a number of assays can be used to assess plants generated using the present methods, as well as to assess candidate plant molecules (e.g., other flavones) for their ability to upregulate biofilm production and assimilation of N2-fixing bacteria. For example, to confirm that the plants are exuding increased levels of the one or more flavones, root exudates from the plants can be isolated and the quantities and identities of the flavones determined, e.g., using mass spectrometry. In addition, the exudates (or other candidate biofilm-inducing molecules) can be incubated with N2-fixing bacteria, e.g., Glucanoacetobacter diazotrophicus, and the biofilm produced by the bacteria assessed. The biofilm can be quantified, e.g., by incubating the exudate (or candidate molecule or molecules) and bacteria in the wells of a microtiter plate, removing the cultures from the plate, washing the wells, adding a solution of crystal violet, rinsing and drying the plate, and then adding ethanol and measuring absorbance at, e.g., 540 nm. See, e.g. Example 1 and www.jove.com/video/2437/microtiter-dish-biofilm-formation-assay, the entire disclosure of which is herein incorporated by reference.
To assess the effect(s) of different chemicals on biofilm formation in N2-fixing bacteria, we used a published protocol (www.jove.com/video/2437/microtiter-dish-biofilm-formation-assay). Basically, bacteria were grown in a 96-well plate in a rich-nutrient medium at 28° C. The compound to be tested was added and the culture was grown overnight. Plant exudates and 2 μl of the compound were added to the well and the bacteria grown for 3 days under shaking (200 rpm). After 3 days, the planktonic bacterial cultures were discarded and the wells were thoroughly washed with water. A solution of 1% of crystal violet was added to each well of the plate and the plate shaken for 10-15 min at 200 rpm. The plates are rinsed 3-4 times with water (by submerging the plants in a tub of water), shaken vigorously and blotted on a stack of paper towels (to eliminate excess of cells and dye), the microliter plate was placed upside down and air dried. To quantify the amount of biofilm that adhered to the well walls, 200 μl of ethanol were added to each well, the plates shacked at 200 rpm, at 28° C. for 10-15 min. The absorbance of the solution was measured at 540 nm, using ethanol as a blank (FIG. 1). […]

Glucanoacetobacter = assay: Biofilm formation in suspension of double-labelled (mCherry, gumDpro::GFP) Glucanoacetobacter; assay type: cell-based, Glucanoacetobacter diazotrophicus; details: addition of compound to a suspension of Glucanoacetobacter (FIGS. 5A, 5B)
From the text: (§1) FIGS. 5A-5C. Effects of the addition of luteolin or apigenin to biofilm formation in Glucanoacetobacter diazotrophicus. FIG. 5A: Effects of the addition of luteolin to biofilm formation in a Glucanoacetobacter diazotrophicus suspension.
The activity of the exudate or of candidate molecules can also be assessed in vivo, e.g., by using transgenic N2-fixing bacteria such as Glucanoacetobacter diazotrophicus that constitutively express a label such as mCherry. The bacteria can also express labeled components of biofilms, e.g., in bacteria transformed with gumDpro::GFP. The double labeling in such bacteria allows the visualization of the bacteria and, independently, the development of biofilm in the presence or absence of the exudate or candidate molecule.
Our results indicated clustering among common moieties, particularly among heterooctacyclic compounds (e.g., Staurosporine) and […] (e.g., luteolin, apigenin) and anthraquinones (e.g. 2H03 and 4G03—Papaverine). (FIG. 4). […] Therefore we assessed the effects of luteolin and apigenin in vivo. First we assessed the formation of chemical-induced formation of biofilm in bacterial cultures. For this, we generated transgenic Glucanoacetobacter constitutively expressing mCherry (transformed with pSEVAGeng-Luc-mCherry) in order to visualize mCherry fluorescent bacteria. Then we transformed the mCherry expressing bacteria with gumDpro::GFP. GumD encodes for components of the bacterial Exopolysacharides (EPS)] in order to visualize GFP-labelled biofilms. Thus the double labelling allowed as to follow the development of biofilm while visualizing the bacteria.

[2] = system: Glucanoacetobacter diazotrophicus; assay: Acetylene reduction assay (ARA) for bacterial N2 fixation; assay type: cell-based; details: Kitaake rice root exudates and 100 μM, 3 days at 28° C., then acetylene 4 days
Procedure: as §1
FIGS. 12A-12C. Effects of flavones (Naringenin, Apigenin, Apigenin-7-Glucoside) on bacterium N2-fixation. FIG. 12A: Activity was assessed by measuring the conversion of acetylene to ethylene by Gas Chromatography. FIG. 12B: Assimilation of Nitrogen by Kitaake rice plants, incubated with Glucanoacetobacter in the absence (DMSO) or presence of Apigenin. Nitrogen assimilation was assessed by feeding ^15N2 and measuring assimilated inorganic ^15N in leaf tissues after 2 weeks, using Mass Spectroscopy. […]
The N2-fixing activity of the bacteria can be assessed, e.g., using an acetylene reduction assay (ARA), in which bacteria are cultured in the presence of acetylene gas, and the conversion of acetylene to ethylene measured by, e.g., gas chromatography.
To assess the effects of the flavones on bacteria N2 fixation, we used the acetylene reduction assay (ARA), where gas acetylene is added, and the resulting ethylene is measured by Gas Chromatography. […] Ten % of the air in the tube was replaced by acetylene, the cells incubated for 4 days and ethylene was measured by gas chromatography (FIG. 12A). […]

[3] = system: Kitaake rice roots incubated with Glucanoacetobacter; assay: Microscopy of adherence of fluorescent bacteria to rice roots; assay type: in vivo, Oryza sativa Kitaake; details: versus DMSO
Procedure: (§2) FIGS. 12A-12C. Effects of flavones (Naringenin, Apigenin, Apigenin-7-Glucoside) on bacterium N2-fixation. FIG. 12A: Activity was assessed by measuring the conversion of acetylene to ethylene by Gas Chromatography. FIG. 12B: Assimilation of Nitrogen by Kitaake rice plants, incubated with Glucanoacetobacter in the absence (DMSO) or presence of Apigenin. Nitrogen assimilation was assessed by feeding ^15N2 and measuring assimilated inorganic ^15N in leaf tissues after 2 weeks, using Mass Spectroscopy. FIG. 12C: Kitaake rice roots incubated with Glucanoacetobacter in the absence (DMSO) or presence of Apigenin.
(§3) The genetically modified plants themselves can also be assessed in any of a number of ways. For example, plants can be grown in the presence of fluorescently labeled N2-fixing bacteria, and the adherence of the bacteria to the plant root hairs, either attached to the root surface or present inside the plant tissues, can be determined. The plants can also be assessed by determining the number of tillers and/or the seed yield. In some embodiments, the assimilation of N2 fixed by bacteria in the soil is assessed by, e.g., growing the plants in the presence of ^15N2 gas, and then measuring the level of ^15N assimilated in the plant leaves, e.g., using Mass spectroscopy.
No bacteria was seen on the control treatments. […]

[4] = system: Kitaake rice plants, incubated with Glucanoacetobacter; assay: Assimilation of 15N2-derived nitrogen by rice plants incubated with bacteria; assay type: in vivo, Oryza sativa Kitaake; details: rice seedlings in soil with bacteria, 15N2 gas added; versus DMSO control
Procedure: as §2
as §3, with “spectroscopy. […]” for “spectroscopy.”

Azoarcus communis = assay: Luteolin-induced biofilm production in N2-fixing bacteria; assay type: cell-based
Procedure: (§4) FIG. 8. Induction of biofilm production in facultative N2-fixing bacteria.
(§5) FIGS. 9A-9C. Effect of luteolin on biofilm production in Azoarcus sp. CIB (FIG. 9A), Azoarcus communis (FIG. 9B), and Burkholderia vietnamensis (FIG. 9C).
(§6) The effects of luteolin on the induction of biofilm production was tested in a number of N2-fixing bacteria (FIG. 8). While Burkholderia vietnamensis and Azoarcus sp. […] Also the response of the bacteria to luteolin was not uniform; Azoarcus sp.

[5] = system: Burkholderia vietnamensis; assay: as above; assay type: cell-based
Procedure: as §4, §5, §6

Azoarcus sp. CIB = assay: as above; assay type: cell-based
Procedure: as §4, §5, §6

[6] = system: Herbaspirillum seropedicae; assay: as above; assay type: cell-based
Procedure: as §4, §6

Azospirillum sp. 8510 = assay: as above; assay type: cell-based
Procedure: as §4, §6

SMILES: O=C1C[C@@H](c2ccc(O)c(O)c2)Oc2cc(O)cc(O)c21 [Eriodictyol]
- Biofilm production (natural flavonoids, FIG. 7) [1]: Only luteolin induced a significant increase

SMILES: O=c1c(O)c(-c2cc(O)c(O)c(O)c2)oc2cc(O)cc(O)c12 [Myricetin]
- Biofilm production (natural flavonoids, FIG. 7) [1]: Only luteolin induced a significant increase

SMILES: O=C1C[C@@H](c2ccc(O)cc2)Oc2cc(O)cc(O)c21 [Naringenin]
- Biofilm production (natural flavonoids, FIG. 7) [1]: Only luteolin induced a significant increase

SMILES: O=c1c(O)c(-c2ccc(O)c(O)c2)oc2cc(O)cc(O)c12 [Quercetin]
- Biofilm production (natural flavonoids, FIG. 7) [1]: Only luteolin induced a significant increase

SMILES: O=c1cc(-c2ccc(O)cc2)oc2cc(O[C@@H]3O[C@H](CO)[C@@H](O)[C@H](O)[C@H]3O)cc(O)c12 [apigenin-7-O-glucoside]
- Induction of biofilm formation in bacterial suspension (Glucanoacetobacter): showed the induction of biofilm formation
- Biofilm formation, comparison of flavones (FIG. 11) [1]: strongest biofilm induction
- Nitrogen fixation (conversion of acetylene to ethylene, gas chromatography) [2]: promote nitrogen fixation

SMILES: O=c1cc(-c2ccc(O)cc2)oc2cc(O)cc(O)c12 [apigenin]
- Induction of biofilm formation in bacterial suspension (Glucanoacetobacter): showed the induction of biofilm formation
- Biofilm formation, comparison of flavones (FIG. 11) [1]: strongest biofilm induction
- Biofilm formation, comparison of flavones (FIG. 11) ([1]; listed as Apigenin): induced a larger biofilm production than Luteolin
- Biofilm formation in chemical screening (normalized to DMSO control) [1]: biofilm inducers
- Nitrogen fixation (conversion of acetylene to ethylene, gas chromatography) [2]: promote nitrogen fixation
- Adherence of bacteria to the root surface and inside the root tissue [3]: Adherence of bacteria to the root surface and inside the root tissue can be seen
- 15N assimilated in the leaves [4]: significant increase in ^15N into Nitrogen compounds

SMILES: O=c1cc(-c2ccc(O)c(O)c2)oc2cc(O)cc(O)c12 [luteolin]
- Induction of biofilm formation in bacterial suspension (Glucanoacetobacter): induction of biofilm formation by increasing amounts of luteolin
- Biofilm production (natural flavonoids, FIG. 7) [1]: induced a significant increase in biofilm production
- Biofilm formation in chemical screening (normalized to DMSO control) [1]: biofilm inducers
- Luteolin-induced biofilm production (Azoarcus communis): did not show an enhanced biofilm production
- Luteolin-induced biofilm synthesis [5]: displayed a luteolin-induced biofilm synthesis
- Luteolin-induced biofilm synthesis (Azoarcus sp. CIB; Azoarcus sp. CIB): displayed a luteolin-induced biofilm synthesis
- Response to luteolin relative to Burkholderia vietnamensis (Azoarcus sp. CIB; Azoarcus sp. CIB versus Burkholderia vietnamensis): lesser response to luteolin than Burkholderia vietnamensis
- Luteolin-induced biofilm production [6]: did not show an enhanced biofilm production
- Luteolin-induced biofilm production (Azospirillum sp. 8510): did not show an enhanced biofilm production
